For one data set, the target named is T1, CDK6/CyclinD3 (Homo sapiens, UniProt Q00534).
T1 construct: purchased Carna 04-107
Briefly: Kinase activity assay (MSA, EZ Reader) against CDK6. The note with it: CDK6/CyclinD3 5.00 nM, ATP 350 µM, FL-Peptide34, 10mM MgCl2. Format: biochemical.

The subject of data set [1] is Human breast cancer cells MCF-7. Put plainly: Cell anti-proliferation assay (MTT), MCF-7. Type of data set: cell-based. The note with it: Homo sapiens, MCF7, 120 h, MCF-7 cells, incubated for 5 days. Put shortly: (§1)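 Cells in DMEM with 10% FBS were seeded at 50,000 cells/mL and grown overnight at 37 °C, 5% CO2, then treated at 9 concentrations (3-fold serial dilution, 0.1% DMSO medium). MTT was added for 3 h, formazan dissolved in acidified isopropanol/NP-40, and absorbance read at 570 nm.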

The nature of data set [2]: Preclinical pharmacokinetic study in rats. Format: in vivo, Sprague-Dawley (SD) rats. Particulars: male SD rats, oral gavage (p.o.) 10 mg/kg, plasma; for AUC(0-t) / Cmax / Tmax: Sprague-Dawley, rat. As to the method: Healthy adult Sprague-Dawley (SD) rats, male, 6-8 weeks old, weighing 200-300 g. EDTA-Na2 anticoagulant. Analytical balance, animal weighing scale, magnetic stirrer, refrigerated centrifuge, single-channel manual pipette, etc. About 10 mg of the test sample was precisely weighed, dissolved in a calculated volume of 5% DMSO, followed by addition of 10% solutol HS-15 and 85% normal saline. The mixture was sonicated and vortexed to homogeneity to obtain a solution with a concentration of 1 mg/mL. The solution was freshly prepared before use. Animals were housed in rat cages and fasted overnight (no less than 10 h) before the test, with free access to water. On the day of the test, animals were weighed and marked on the tail. Blank blood samples were collected before administration. The blood was collected via tail vein. • Route of administration: oral gavage (p.o.) • Dose: 10 mg/kg • Dosing volume: 10 mL/kg • Procedure: The rat was held upright with the left hand wearing bite-resistant glove. A 16-gauge gavage needle was inserted through the mouth into the esophagus. The needle was advanced gently without obvious resistance, and the drug solution was injected into the stomach. Whole blood (0.1 mL) were collected from each test animal before administration and at 0.5 […], and 24 h after administration into EDTA-Na2 anticoagulant tubes. The tubes were inverted 3-4 times for mixing, then centrifuged at 10,000 g for 5 min at 4 °C to separate plasma. Plasma samples were stored at -80 °C until analysis. Blood was collected via tail vein. […] The mixture was vortexed for 2 min and centrifuged at 10,000 g for 10 min at 4 °C. Processing of unknown plasma samples: 25 μL of drug-containing rat plasma was transferred, followed by addition of 25 μL of methanol and 200 μL of internal standard solution. The mixture was vortexed for 2 min and centrifuged at 10,000 g for 10 min at 4 °C. The supernatant was collected for LC-MS/MS analysis. A quantitative method for the determination of the test compound was established using a Shimadzu liquid chromatography system coupled with Triple Quad^TM 6500+ AB mass spectrometer. The concentration of the parent drug in plasma was determined. The plasma concentration-time curve was plotted, and the main pharmacokinetic parameters were calculated using a non-compartmental model in winnonlin Phoenix software.

For data set [3], the system named is human mantle cell lymphoma cells JEKO-1. Put plainly: Cell anti-proliferation assay (MTT), JEKO-1. Type of data set: cell-based. The note with it: Homo sapiens, 120 h, JEKO-1 cells, incubated for 5 days. The procedure, abridged:
as §1

The next data set concerns the target CDK4/CycD1 (Homo sapiens, UniProt P11802). Put plainly: Kinase activity assay (MSA, EZ Reader) against CDK4.
Data set [4] has as its system human ovarian cancer cells A2780. Put plainly: Cell anti-proliferation assay (MTT), A2780. Type of data set: cell-based. The note with it: Homo sapiens, 120 h, incubated for 5 days. The procedure, abridged:
as §1

Sequence of CDK4/CycD1 (P11802 whole entry): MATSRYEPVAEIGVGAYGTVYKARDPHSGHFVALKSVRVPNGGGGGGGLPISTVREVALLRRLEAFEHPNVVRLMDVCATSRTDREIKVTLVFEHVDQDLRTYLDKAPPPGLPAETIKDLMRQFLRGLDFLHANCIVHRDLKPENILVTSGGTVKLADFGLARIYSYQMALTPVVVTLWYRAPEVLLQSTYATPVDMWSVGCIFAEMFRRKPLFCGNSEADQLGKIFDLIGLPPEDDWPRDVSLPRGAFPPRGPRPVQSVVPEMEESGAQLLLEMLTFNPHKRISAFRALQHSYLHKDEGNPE
T1 sequence (Q00534 whole entry): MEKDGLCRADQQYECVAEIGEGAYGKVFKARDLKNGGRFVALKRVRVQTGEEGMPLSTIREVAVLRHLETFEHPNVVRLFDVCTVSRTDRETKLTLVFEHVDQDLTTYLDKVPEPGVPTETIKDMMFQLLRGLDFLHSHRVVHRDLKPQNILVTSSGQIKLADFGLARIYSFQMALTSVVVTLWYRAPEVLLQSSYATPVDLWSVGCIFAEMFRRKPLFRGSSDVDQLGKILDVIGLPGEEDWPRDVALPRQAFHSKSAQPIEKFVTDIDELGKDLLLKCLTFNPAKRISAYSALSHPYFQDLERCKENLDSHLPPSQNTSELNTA
T1 sequence (P30281 whole entry partner): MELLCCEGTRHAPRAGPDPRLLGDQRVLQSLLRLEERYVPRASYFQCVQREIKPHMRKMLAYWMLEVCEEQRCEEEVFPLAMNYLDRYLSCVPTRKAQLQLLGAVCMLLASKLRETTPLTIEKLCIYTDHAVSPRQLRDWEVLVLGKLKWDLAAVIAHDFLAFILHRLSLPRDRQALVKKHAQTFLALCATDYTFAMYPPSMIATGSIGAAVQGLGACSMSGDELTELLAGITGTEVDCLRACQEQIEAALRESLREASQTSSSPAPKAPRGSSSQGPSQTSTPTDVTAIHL

Broadly, the IC50 is the concentration at which inhibition is half-maximal. Lower therefore signals higher potency. The AUC(0-t) is the area under the concentration-time curve up to a stated or last time point. As usually defined, the Cmax is the highest concentration seen after dosing. By Tmax is commonly meant the time from dosing to the highest level. For `C[C@H]1CCN(C2CC2)c2nc3c(F)cc(-c4nc(N[C@@H]5CCOC[C@H]5O)ncc4Cl)cc3n21` [TA-4], the IC50 was 63.9 nM at CDK6/CyclinD3; at most 500 nM in data set [1]; at most 500 nM in data set [3]; 4.4 nM against CDK4/CycD1; at most 500 nM in data set [4]. This compound returned an exposure AUC(0-t) in data set [2] of 16200 ng·h/mL. In addition, in data set [2], the Cmax turned out to be 4430 ng/mL. Also, in data set [2], the Tmax stood at 1 h. Also, the “HL_” value in data set [2] worked out at 3.19 h.
With `C[C@H]1CCN(c2ccccc2)c2nc3c(F)cc(-c4nc(N[C@@H]5CCOC[C@H]5O)ncc4Cl)cc3n21` [TA-33], the concentration for half-maximal inhibition (IC50) at CDK6/CyclinD3 turned out to be 94.2 nM. Further, in data set [2], the AUC(0-t) was 2170 ng·h/mL, the concentration peaked (Cmax) at 262 ng/mL and the Tmax worked out at 4.67 h. Also, on CDK4/CycD1, the IC50 came to 3.4 nM.
Regarding `CC(C)n1c(N2CCOCC2)nc2c(F)cc(-c3nc(N[C@@H]4CCOC[C@H]4O)ncc3Cl)cc21` [TB-12, (3S,4R)-4-((5-chloro-4-(4-fluoro-1-isopropyl-2-morpholino-1H-benzo[d]imidazol-6-yl)pyrimidin-2-yl)amino)tetrahydro-2H-pyran-3-ol], the IC50 is 151 nM against CDK6/CyclinD3; at most 500 nM in data set [1]; at most 500 nM in data set [3]; 6.01 nM at CDK4/CycD1; at most 500 nM in data set [4]. Besides, the AUC(0-t) in data set [2] came to 4500 ng·h/mL. The same compound had a Cmax in data set [2] of 677 ng/mL. Also, the Tmax in data set [2] turned out to be 1.5 h. Moreover, the “HL_” value in data set [2] was 3.14 h.
With `CC(C)n1c(N2CCOC2=O)nc2c(F)cc(-c3nc(N[C@@H]4CCOC[C@H]4O)ncc3Cl)cc21` [TB-24], the IC50 is 143 nM against CDK6/CyclinD3; at most 500 nM in data set [1]; at most 500 nM in data set [3]; 10.1 nM on CDK4/CycD1; at most 500 nM in data set [4]. The same compound returned an AUC(0-t) in data set [2] of 4500 ng·h/mL. Further, in data set [2], the Cmax came out at 677 ng/mL. Also, in data set [2], the Tmax worked out at 1.67 h. Also, the “HL_” value in data set [2] is reported as 3.14 h.
Regarding `CC(C)n1c(N2CCOC2=O)nc2c(F)cc(-c3nc(NC4CCN(S(C)(=O)=O)CC4)ncc3Cl)cc21` [TB-26], the IC50 against CDK6/CyclinD3 was 200 nM; in data set [1], at most 500 nM; in data set [3] it was at most 500 nM; at CDK4/CycD1 it was 18.6 nM; in data set [4] it was at most 500 nM.
As to `CC(C)n1c(N2CCOC2=O)nc2c(F)cc(-c3nc(NC4CCN(S(C)(=O)=O)CC4)ncc3F)cc21` [TB-28], the IC50 is 154 nM at CDK6/CyclinD3; at most 500 nM in data set [1]; at most 500 nM in data set [3]; 8.57 nM on CDK4/CycD1; at most 500 nM in data set [4].
For the compound `CCS(=O)(=O)N1CCC(Nc2ncc(Cl)c(-c3cc(F)c4nc(N5CCOC5=O)n(C(C)C)c4c3)n2)CC1` [TB-31], the IC50 against CDK6/CyclinD3 was 182 nM; in data set [1], at most 500 nM; in data set [3], at most 500 nM; at CDK4/CycD1, 15.3 nM; in data set [4], at most 500 nM. The compound further gave an AUC(0-t) in data set [2] of 4890 ng·h/mL. Moreover, the Cmax in data set [2] was found to be 923 ng/mL. Further, the Tmax in data set [2] turned out to be 4 h. In data set [2], the “HL_” value worked out at 1.34 h.
As for `CC(C)n1c(N2CCOC2=O)nc2c(F)cc(-c3nc(NC4CCN(S(=O)(=O)C(C)C)CC4)ncc3Cl)cc21` [TB-32], the concentration for half-maximal inhibition (IC50) is 145 nM against CDK6/CyclinD3; at most 500 nM in data set [1]; at most 500 nM in data set [3]; 12.3 nM on CDK4/CycD1; at most 500 nM in data set [4].
Turning to `CC(C)n1c(N2CCOC2=O)nc2c(F)cc(-c3nc(NC4CCN(S(=O)(=O)C5CC5)CC4)ncc3Cl)cc21` [TB-33], the IC50 on CDK6/CyclinD3 is 61.7 nM; in data set [1] it was at most 500 nM; in data set [3], at most 500 nM; against CDK4/CycD1 it was 8.37 nM; in data set [4], at most 500 nM.
With `CC(C)n1c(N2CCOC2=O)nc2c(F)cc(-c3nc(NC4CCN(S(C)(=O)=O)CC4(F)F)ncc3Cl)cc21` (centres unmarked) [TB-35], the IC50 is 167 nM against CDK6/CyclinD3; at most 500 nM in data set [1]; at most 500 nM in data set [3]; 15.5 nM at CDK4/CycD1; at most 500 nM in data set [4].
With `CC(C)n1c(N2CCOC2=O)nc2c(F)cc(-c3nc(Nc4ccc(S(=O)(=O)NCCN(C)C)cc4)ncc3Cl)cc21` [TB-38, 4-((5-chloro-4-(4-fluoro-1-isopropyl-2-(2-oxooxazolidin-3-yl)-1H-benzo[d]imidazol-6-yl)pyrimidin-2-yl)amino)-N-(2-(dimethylamino)ethyl)benzenesulfonamide], the IC50 was 76.6 nM on CDK6/CyclinD3; at most 500 nM in data set [1]; at most 500 nM in data set [3]; 18.5 nM at CDK4/CycD1; at most 500 nM in data set [4].
With `CC1CCN(C)c2nc3c(F)cc(-c4nc(NC5CCN(S(C)(=O)=O)CC5)ncc4Cl)cc3n21` (centres unmarked) [TB-51, 5-chloro-4-(9-fluoro-1,4-dimethyl-1,2,3,4-tetrahydrobenzo[4,5]imidazo[1,2-a]pyrimidin-7-yl)-N-(1-(methylsulfonyl)piperidin-4-yl)pyrimidin-2-amine], the IC50 was 27.6 nM on CDK6/CyclinD3; at most 500 nM in data set [1]; at most 500 nM in data set [3]; 2.23 nM at CDK4/CycD1; at most 500 nM in data set [4].
On to `CNS(=O)(=O)c1ccc(Nc2ncc(Cl)c(-c3cc(F)c4nc5n(c4c3)C(C)CCN5C)n2)cc1` (centres unmarked) [TB-53, 4-((5-chloro-4-(9-fluoro-1,4-dimethyl-1,2,3,4-tetrahydrobenzo[4,5]imidazo[1,2-a]pyrimidin-7-yl)pyrimidin-2-yl)amino)-N-methylbenzenesulfonamide], for which the IC50 was 56.9 nM against CDK6/CyclinD3; at most 500 nM in data set [1]; at most 500 nM in data set [3]; 10.6 nM on CDK4/CycD1; at most 500 nM in data set [4].
Regarding `CC(C)n1c(N2CCOC2=O)nc2c(F)cc(-c3nc(Nc4ccc(S(=O)(=O)NCCN(C)C)cc4)nc4[nH]cnc34)cc21` [TB-70], the IC50 against CDK6/CyclinD3 was 76.6 nM; in data set [1], at most 500 nM; in data set [3], at most 500 nM; at CDK4/CycD1, 18.5 nM; in data set [4], at most 500 nM.
Turning to `CN1CCCn2c1nc1c(F)cc(-c3nc(Nc4ccc(C#N)cc4)ncc3Cl)cc12` [TB-133, 4-((5-chloro-4-(9-fluoro-1-methyl-1,2,3,4-tetrahydrobenzo[4,5]imidazo[1,2-a]pyrimidin-7-yl)pyrimidin-2-yl)amino)benzonitrile], the IC50 was 64.8 nM on CDK6/CyclinD3; at most 500 nM in data set [1]; at most 500 nM in data set [3]; 17.9 nM against CDK4/CycD1; at most 500 nM in data set [4].
With `CC1(C)CSc2nc3c(F)cc(-c4nc(N[C@@H]5CCOC[C@H]5O)ncc4Cl)cc3n2C1` [TB-146], the IC50 was 60.1 nM on CDK6/CyclinD3; at most 500 nM in data set [1]; at most 500 nM in data set [3]; 11.9 nM against CDK4/CycD1; at most 500 nM in data set [4].
Take `C[C@@H]1C[C@H](C)n2c(nc3c(F)cc(-c4nc(N[C@@H]5CCOC[C@H]5O)ncc4Cl)cc32)N1C` [TB-154]: the IC50 was 75.8 nM against CDK6/CyclinD3; at most 500 nM in data set [1]; at most 500 nM in data set [3]; 3 nM at CDK4/CycD1; at most 500 nM in data set [4].
`C[C@H]1CCN(CC(C)(C)O)c2nc3c(F)cc(-c4nc(N[C@@H]5CCOC[C@H]5O)ncc4Cl)cc3n21` [TC-7]: the IC50 on CDK6/CyclinD3 was 154 nM; in data set [1] it was at most 500 nM; in data set [3], at most 500 nM; against CDK4/CycD1, 3.7 nM; in data set [4], at most 500 nM.
Regarding `C[C@H]1CCN(c2ccc(F)cc2F)c2nc3c(F)cc(-c4nc(N[C@@H]5CCOC[C@H]5O)ncc4Cl)cc3n21` [TC-13], the IC50 at CDK6/CyclinD3 was 74.4 nM; in data set [1], at most 500 nM; in data set [3] it was at most 500 nM; at CDK4/CycD1 it was 3.3 nM; in data set [4], at most 500 nM.
`C[C@H]1CCN(c2ccc(C#N)cc2)c2nc3c(F)cc(-c4nc(N[C@@H]5CCOC[C@H]5O)ncc4Cl)cc3n21` [TC-17]: the IC50 is above 500 nM against CDK6/CyclinD3; at most 500 nM in data set [1]; at most 500 nM in data set [3]; 4.5 nM against CDK4/CycD1; at most 500 nM in data set [4].

The values above are taken from patent EP4775575A1, “COMPOUND USED AS CDK4 KINASE INHIBITOR AND USE THEREOF” (TYK Medicines, Inc., priority 2023, dated 2025).
